Results as given in patent publication US20210161149A1, “METHOD OF CONTROLLING SOIL-BORNE DISEASES OF PLANTS” (NATIONAL AGRICULTURE AND FOOD RESEARCH ORGANIZATION, priority 2018, published 2021).

Columns and labels:
[1] = system: Pythium ultimum strain MAFF425494; assay: Control of Pythium soil-borne disease in cucumber by a Pseudomonas bacterium combined with an amino acid; type: in vivo; conditions: for effect on disease control ability of the Pseudomonas bacterium, averaged cucumber weight (FIG. 2): 10 mM amino acid combined with Pseudomonas protegens strain CHA0, n=12 per group
Procedure: The disease control abilities of a Pseudomonas bacterium and glutamic acid against an infectious disease caused by a Pythium (Pythium ultimum strain MAFF425494) as a soil pathogen were investigated using cucumber as a test plant.
(§1) Cucumber seeds were placed on a filter paper moistened with sterile water and left in darkness at 26° C. for 24 hours. Pseudomonas protegens strain CHA0 was used as a Pseudomonas bacterium and incubated with shaking in NYB medium (nutrient broth 25 g, yeast extract 5 g, H2O 1000 mL) under the conditions of 30° C. and 180 rpm for 24 hours. The broth culture of the Pseudomonas bacterium was centrifuged to remove supernatants, and the precipitate was suspended in sterile water to OD600=0.1.
Vermiculite was moistened by adding water. To the vermiculite, coarse cereal crops (millet) previously infected with a Pythium were added as they were, and mixing was done well. 7 g of the coarse cereal crops infected with a Pythium was added to 1 L of the vermiculite. Some portion of the vermiculite was left without adding the coarse cereal crops infected with a Pythium.
(§2) 50 mL of each prepared vermiculite was equally divided into sections (each 5 cm square and 5 cm deep) of a seedling tray with drainage holes at the bottom for water to drain out. Two grains of cucumber seeds observed to have germinated were seeded on each divided vermiculite.
The Pseudomonas bacterium and glutamic acid were applied to cucumber seeds and soils in their vicinity. To be specific, for each section of the seedling tray, 4 mL of the adjusted solution of the Pseudomonas bacterium was applied to cucumber seeds, and 15 mL of the vermiculite left without being infected with a Pythium was placed over the cucumber seeds. The seedling tray was soaked in water or an aqueous solution of 10 mM glutamic acid (L-glutamic acid) (10 mL per seedling tray section) contained in a vat. The applications of the Pseudomonas bacterium and glutamic acid were carried out within 2 hours after the seeding of cucumber seeds. The interval between the timings of applications of the Pseudomonas bacterium and glutamic acid was ensured to be not exceeding 1 hour.
The seedling tray was kept in a plant incubator set at 25° C. The light and dark periods were set to 16 and 8 hours, respectively. The cultivation period in the incubator was set to 2 weeks. Replacement of water or an aqueous solution of 10 mM glutamic acid in a vat was done every other day.
By using the same procedure as in Example 1, the effectiveness of combined use of the Pseudomonas bacterium with each of glutamic acid and histidine was investigated.
For application of histidine, an aqueous solution of 10 mM histidine (L-histidine) was prepared and used instead of the aqueous solution of glutamic acid used in Example 1. The number of cucumbers cultivated was n=12 for each group. After 2 weeks of cultivation, the weights of cucumbers were measured and averaged. Upon measurement of the weights of cucumbers, it was ensured that the vermiculite remaining on the roots of cucumbers was washed away carefully.
The effects of combined use of a Pseudomonas bacterium with other amino acids than histidine were investigated. In this example, not only glutamic acid (Glu), but also the following other amino acids: glutamine (Gln), glycine (Gly), leucine (Leu), phenylalanine (Phe), arginine (Arg), lysine (Lys), valine (Val), isoleucine (Ile) and tryptophane (Trp), were evaluated by using the same procedure as in Example 1. For each of these amino acids, an aqueous solution of 10 mM amino acid was prepared and used. In this example, Pseudomonas protegens strain Cab57 was used as a Pseudomonas bacterium, and all amino acids used were of the L-form.
The number of cucumbers cultivated in this example was n=12 to 18 for each group. As in Example 2, after 2 weeks of cultivation, the weights of cucumbers were measured and averaged. […]

[2] = system: Rhizoctonia solani strain MAFF726551; assay: Control of Rhizoctonia soil-borne disease in cucumber by a Pseudomonas bacterium combined with glutamic acid; type: in vivo; conditions: 10 mM glutamic acid combined with Pseudomonas protegens strain Cab57, 5 days cultivation, n=8 to 12
Procedure: as §1, §2
The Pseudomonas bacterium and glutamic acid were applied to cucumber seeds and soils in their vicinity. […]
In this example, by using the same procedure as in Example 1, 1 g of coarse cereal crops infected with the Rhizoctonia was added to 1 L of vermiculite, instead of 7 g of coarse cereal crops infected with a Pythium. […] As in Example 3, for each of the averaged values of the cucumber weights after cultivation calculated for the different groups, a relative value was determined with respect to the averaged value for the group treated with the Pseudomonas bacterium alone, which was taken as 1.

SMILES	effect on disease control ability of the Pseudomonas bacterium, averaged cucumber weight (FIG. 2) ([1]; cucumber, 2 weeks)	effect of combined use on the soil-borne disease control ability of the Pseudomonas bacterium (photograph, FIG. 1) ([1]; cucumber germinated seeds in vermiculite, 10 mM L-glutamic acid combined with Pseudomonas protegens strain CHA0, 2 weeks cultivation)	effect on disease control ability of the Pseudomonas bacterium, cucumber weight relative to bacterium alone = 1 (FIG. 3) ([1]; cucumber, 10 mM L-amino acid combined with Pseudomonas protegens strain Cab57, 2 weeks, n=12 to 18)	soil-borne disease control ability of glutamic acid itself (FIG. 1) ([1]; cucumber, 10 mM L-glutamic acid alone, no Pseudomonas bacterium, 2 weeks cultivation)	effect on disease control ability of the Pseudomonas bacterium, cucumber weight relative to bacterium alone = 1 (FIG. 4) ([1]; cucumber, 10 mM glutamic acid combined with Pseudomonas sp. strain Os17, 2 weeks, n=17)	effect on soil-borne disease control ability of the Pseudomonas bacterium, cucumber weight relative to bacterium alone = 1 (FIG. 5) [2]
N[C@@H](Cc1c[nH]cn1)C(=O)O [histidine, L-histidine, reference compound]	did not have a capability of enhancing the disease control ability of the Pseudomonas bacterium	–	–	–	–	–
N[C@@H](CCC(=O)O)C(=O)O [glutamic acid, L-glutamic acid]	enhanced the disease control ability of the bacterium	enhanced the soil-borne disease control ability of the Pseudomonas bacterium	exhibited a similar effect even on a different strain of Pseudomonas bacterium	seemed not to have a high soil-borne disease control ability	exhibited a similar effect	exhibited similar enhancement of soil-borne disease control ability
